From patent US10501479B2, “Benzenesulfonyl-asymmetric ureas and medical uses thereof” (HELSINN HEALTHCARE SA, priority 2016, dated 2019)
Where two headings read alike, the source gives them in different places.

Key:
[1] = target: T1, recombinant human ghrelin receptor (HEK293/GRLN) (Homo sapiens, UniProt Q92847); assay: Ghrelin inverse agonist potency (EC50) with IP-1 (IP-One HTRF) assay; format: cell-based; details: IP-1 assay
T1 construct: expressed in transfected cells
In short: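 IP-1 accumulation was measured by HTRF (IP1-d2/Tb-cryptate, 620/665 nm read after 1 hour at room temperature) following 1 hour of compound treatment at 37° C. Cells were HEK293 stably expressing human ghrelin receptor, plated a day earlier on Matrigel. Inverse agonist potency was reported as EC50.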

[2] = Animal PK study in mouse via i.v., p.o. and s.c. administration; format: in vivo; details: for PK CLiv / PK Vdiv / PK t1/2iv: i.v.; for PK CLpo / PK Vdpo / PK t1/2po: p.o.
Protocol: All treated animals received a single dose of a test compound (either through i.v., p.o., or s.c. administration) according to the regimen shown in the following table:
For oral dose groups, appropriate amount of test compound was prepared in the following formulation carrier: 1% DMSO (increase to 5% maximum if necessary) and 0.5% Methycellulose. Each mouse or rat received by oral gavage 10 mL/kg of the formulation mixture.
For i.v. and s.c dose groups, appropriate amount of test compound was dissolved in 1% DMSO (increase to 5% maximum if necessary), 99% of 20% HP-β-Cyclodextron (w/v). The pH was adjusted accordingly. Each mouse or rat received 5 mL/kg of the formulation mixture. i.v. dose was administered by tail vein injection. Subcutaneous injection was administered over the shoulders, into the loose skin over the neck. At designated time points (e.g., i.v. and s.c.: 0.083, 0.25, 0.5, 1, 2, 4, 8 and 24 hrs; p.o.: 0.25, 0.5, 1, 2, 4, 8 and 24 hrs), systemic samples of blood (50 μL in mouse or 500 μL in rat) were collected by puncture (submandibular vein in mouse or jugular vein in rat) into vacutainers containing EDTA-K2 as anti-coagulant. The blood was centrifuged at 6000 rpm for 8 min at 4° C. to obtain plasma. All plasma samples were stored at −20° C. All plasma samples were added to acetonitrile for protein precipitation and quantitatively analyzed by LC-MS/MS.

[3] = target: T2, GHSR-1a (HEK293/GHSR1a cell line) (Homo sapiens, UniProt Q92847); assay: Ghrelin antagonist potency (IC50) with calcium FLIPR assay, ghrelin 10 nM; format: cell-based
T2 construct: expressed in transfected cells; host or cells: HEK293/GHSR1a cell line
T2 sequence (Q92847 whole entry): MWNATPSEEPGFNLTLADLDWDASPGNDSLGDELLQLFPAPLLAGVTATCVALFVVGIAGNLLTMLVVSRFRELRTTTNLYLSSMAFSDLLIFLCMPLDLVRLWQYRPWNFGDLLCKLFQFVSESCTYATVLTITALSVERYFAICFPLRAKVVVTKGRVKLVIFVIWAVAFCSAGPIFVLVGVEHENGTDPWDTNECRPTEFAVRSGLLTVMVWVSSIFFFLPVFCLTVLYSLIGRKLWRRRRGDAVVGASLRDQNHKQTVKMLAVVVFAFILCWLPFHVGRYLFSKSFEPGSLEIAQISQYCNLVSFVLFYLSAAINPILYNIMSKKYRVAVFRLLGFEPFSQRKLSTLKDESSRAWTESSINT
In short: (§1)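 Calcium flux was followed 2 min by FLIPR in dye-loaded HEK293/GHSR1a cells. For antagonist IC50, compound and ghrelin (10 nM) were co-added at t=20 sec and inhibition of the ghrelin signal fitted; for agonist EC50, compound alone was added at t=20 sec and dose-response fitted.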

[4] = target: T2, GHSR-1a (HEK293/GHSR1a cell line); assay: Ghrelin agonist potency (EC50) with calcium FLIPR assay; format: cell-based
In short: as §1

[5] = Metabolic stability in human liver microsomes; format: in vitro ADME
Protocol: Metabolic Stability Study
The metabolic stability of compounds in human, dog, rat and mouse liver microsomes was performed according the experimental conditions reported below:
• a) Prepare the following 5 stock solutions: • 1. Test compound stock solutions: dilute 10 mM solution of dextromethorphan (Dtr) in DMSO, 10 mM solution of diphenhydramine (DPA) in DMSO, 10 mM solution of omeprazole (Ome) in DMSO, 10 mM solution of verapamil (Ver) in DMSO, and 10 mM of an inverse agonist compound in DMSO to 0.25 mM solution each with acetonitrile/water (70/30). • 2. Buffer: 100 mM potassium phosphate Buffer (PBS) at pH 7.4 • 3. Liver microsomes (20 mg/ml): Thaw in 37° C. water bath quickly • 4. 2000 μL: of NADPH regenerating system (1.3 mM). Place this system on ice before use:
• 5. […] The test compound concentration in the wells, measured by LC-MS/MS, represents the concentration at time=0. • f) To determine the test compound concentration when t≠0, pre-incubate the NADPH regenerating system and the incubation plate containing the remaining 320 μL of incubation mixture (microsomes protein and test compound) for 5 minutes at 37° C. • g) Start the incubation reaction by adding 80 μL NADPH regenerating system to each well containing the remaining 320 μL incubation mixture. • h) After 10 min., 30 min., and 90 min. of incubation at 37° C., transfer 100 μL of the incubation mixture (microsomes protein, test compound, and NADPH) into the wells of a stop plate pre-filled with 300 μL of the cold quench solution. Shake well. • i) Centrifuge the stop plate at 5000×g for 10 minutes. Collect and dilute the supernatant 3 times with distilled water. Sample and analyze the test compound concentration for all the wells by LC-MS/MS. Animal PK Studies via i.v. (intravenous), p.o. (orally) and s.c. (subcutaneous) administrations

[6] = inverse agonist potency, read-out: EC50 (Activity)
[7] = ghrelin antagonist potency, read-out: IC50 (Activity)
[8] = ghrelin inverse agonist potency, read-out: Activity EC50
[9] = ghrelin agonist potency, read-out: Activity EC50/EMax
[10] = ghrelin antagonist potency, read-out: Activity IC50
[11] = HEK293/GRLN, read-out: Activity EC50 (ghrelin inverse agonist potency)
[12] = HEK293/GHSR1a, read-out: Activity EC50/EMax: EC50 (ghrelin agonist potency)
[13] = HEK293/GHSR1a, ghrelin 10 nM, read-out: Activity IC50 (ghrelin antagonist potency)

T1 sequence (Q92847 whole entry): as above

SMILES | EC50 [1, 8] | EC50 [4, 9] | Metabolic Stability Study H = human [5] | IC50 [3, 10] | EC50 [1, 11] | EC50 [4, 12] | IC50 [3, 13] | other results
C[C@H](NC(=O)Nc1ccc(S(=O)(=O)Nc2ccc3c(c2)CCNC3)cc1)c1cccc(Cl)c1Cl.Cl [H1004, (S)-4-(3-(1-(2,3-dichlorophenyl)ethyl)ureido)-N-(1,2,3,4-tetrahydroisoquinolin-6-yl)benzenesulfonamide] |  |  |  |  |  |  |  | EC50 [1, 6]: 0.00397 µM; PK F [2]: 13%; PK CLiv [2]: 35.5 L/h/kg; PK Vdiv [2]: 37.7 L/kg; PK t1/2iv [2]: 0.74 h; PK CLpo [2]: 223.9 L/h/kg; PK Vdpo [2]: 479.2 L/kg; PK t1/2po [2]: 1.48 h; IC50 [3, 7]: 0.0037 µM
Cc1cc(NC(=O)NC(C)c2ccccc2)ccc1S(=O)(=O)Cc1ccc2c(c1)CNC2 (stereo not shown) [H1493, 1-(4-((isoindolin-5-ylmethyl)sulfonyl)-3-methylphenyl)-3-(1-phenylethyl)urea] | 0.0042 µM | > 30 µM | H = 21.5 μL/min/mg | 0.0153 µM |  |  |  | 
CC(NC(=O)Nc1ccc(S(=O)(=O)Cc2ccc3c(c2)CN(C)C3)cc1-c1ncco1)c1ccccc1 (stereo not shown) [H1501, 1-(4-(((2-methylisoindolin-5-yl)methyl)sulfonyl)-2-(oxazol-2-yl)phenyl)-3-(1-phenylethyl)urea] | 0.0181 µM | > 30 µM | H = 319.6 μL/min/mg | 0.119 µM |  |  |  | 
CC(NC(=O)Nc1ccc(S(=O)(=O)Cc2ccc3c(c2)CNC3)cc1-c1ncco1)c1ccccc1 (stereo not shown) [H1500, 1-(4-((isoindolin-5-ylmethyl)sulfonyl)-2-(oxazol-2-yl)phenyl)-3-(1-phenylethyl)urea] | 0.0062 µM | > 30 µM | H = 61.4 μL/min/mg | 0.0164 µM |  |  |  | 
CC(NC(=O)Nc1ccc(S(=O)(=O)Cc2ccc3c(c2)CNC3)c(Cl)c1)c1ccccc1 (stereo not shown) [H1494, 1-(3-chloro-4-((isoindolin-5-ylmethyl)sulfonyl)phenyl)-3-(1-phenylethyl)urea] | 0.004 µM | > 30 µM | H = 19.1 μL/min/mg | 0.0106 µM |  |  |  | 
COc1cc(S(=O)(=O)Cc2ccc3c(c2)CN(C)C3)ccc1NC(=O)N(O)C(C)c1cccc(Cl)c1Cl (stereo not shown) [H1496, 1-(1-(2,3-dichlorophenyl)ethyl)-1-hydroxy-3-(2-methoxy-4-(((2-methylisoindolin-5-yl)methyl)sulfonyl)phenyl)urea] | 0.0025 µM | > 30 µM | H = 178.3 μL/min/mg | 0.00591 µM |  |  |  | 
COc1ccc([C@H](C)NC(=O)Nc2ccc(S(=O)(=O)Nc3ccc4c(c3)CCNC4)cc2)c(Cl)c1Cl.Cl [H1005, (S)-4-(3-(1-(2,3-dichloro-4-methoxyphenyl)ethyl)ureido)-N-(1,2,3,4-tetrahydroisoquinolin-6-yl)benzenesulfonamide] |  |  |  |  |  |  |  | EC50 [1, 6]: 0.00888 µM; PK F [2]: 1.3%; PK CLiv [2]: 0.44 L/h/kg; PK Vdiv [2]: 1.46 L/kg; PK t1/2iv [2]: 2.3 h; PK CLpo [2]: 33.33 L/h/kg; PK Vdpo [2]: 112.3 L/kg; PK t1/2po [2]: 2.33 h; IC50 [3, 7]: 0.0198 µM
CC(NC(=O)Nc1ccc(S(=O)(=O)Cc2ccc3c(c2)CNC3)c(Br)c1)c1ccccc1 (stereo not shown) [H1504, 1-(3-bromo-4-((isoindolin-5-ylmethyl)sulfonyl)phenyl)-3-(1-phenylethyl)urea] | 0.00555 µM | > 30 µM | H = 19.3 μL/min/mg | 0.00647 µM |  |  |  | 
CC(NC(=O)Nc1ccc(S(=O)(=O)Cc2ccc3c(c2)CNC3)c(F)c1)c1ccccc1.Cl (stereo not shown) [H1492, 1-(3-fluoro-4-((isoindolin-5-ylmethyl)sulfonyl)phenyl)-3-(1-phenylethyl)urea] | 0.0051 µM | > 30 µM | H = 24.4 μL/min/mg | 0.0363 µM |  |  |  | 
CC(c1ccccc1F)N(O)C(=O)Nc1ccc(S(=O)(=O)Cc2ccc3c(c2)CN(C)C3)cc1 (stereo not shown) [H1491, 1-(1-(2-fluorophenyl)ethyl)-1-hydroxy-3-(4-(((2-methylisoindolin-5-yl)methyl)sulfonyl)phenyl)urea] | 0.0046 µM | > 30 µM | H = 79.5 μL/min/mg | 0.0297 µM |  |  |  | 
CC(NC(=O)Nc1ccc(S(=O)(=O)Cc2ccc3c(c2)CNC3)cn1)c1ccccc1 (stereo not shown) [H1408, 1-(5-((isoindolin-5-ylmethyl)sulfonyl)pyridin-2-yl)-3-(1-phenylethyl)urea] |  |  |  |  | 0.036 µM | > 30 µM | 0.162 µM | 
CC(NC(=O)Nc1ccc(S(=O)(=O)Cc2ccc3c(c2)CNC3)cc1)c1ccccn1 (stereo not shown) [H1289, 1-(4-((isoindolin-5-ylmethyl)sulfonyl)phenyl)-3-(1-(pyridin-2-yl)ethyl)urea] |  |  |  |  | 0.161 µM | 0.147 µM | 0.542 µM | 
CC1Cc2cc(CS(=O)(=O)c3ccc(NC(=O)N(C)Cc4ccccc4)cc3)ccc2CN1 (stereo not shown) [H1416, 1-benzyl-1-methyl-3-(4-(((3-methyl-1,2,3,4-tetrahydroisoquinolin-6-yl)methyl)sulfonyl)phenyl)urea] |  |  |  |  | 0.0266 µM | > 30 µM | 1.04 µM | 
CCOC(=O)N1CCc2cc(NS(=O)(=O)c3ccc(NC(=O)N[C@@H](C)c4cccc(Cl)c4Cl)cc3)ccc2C1 [H1054, ethyl (S)-6-((4-(3-(1-(2,3-dichlorophenyl)ethyl)ureido)phenyl)sulfonamido)-3,4-dihydroisoquinoline-2(1H)-carboxylate] |  |  |  |  |  |  |  | PK F [2]: 3.0%; PK CLiv [2]: 1.62 L/h/kg; PK Vdiv [2]: 4.32 L/kg; PK t1/2iv [2]: 1.85 h; PK CLpo [2]: 53.9 L/h/kg; PK Vdpo [2]: 96.2 L/kg; PK t1/2po [2]: 1.24 h; IC50 [3, 7]: 10.1 µM
COc1ccc(C(C)NC(=O)Nc2ccc(S(=O)(=O)Cc3ccc4c(c3)CN(C)C4)cc2)cc1OC (stereo not shown) [H1449, 1-(1-(3,4-dimethoxyphenyl)ethyl)-3-(4-(((2-methylisoindolin-5-yl)methyl)sulfonyl)phenyl)urea] |  |  |  |  | 0.928 µM | > 30 µM | 4.17 µM | 
CC(=O)N1CC(NC(=O)Nc2ccc(S(=O)(=O)Cc3ccc4c(c3)CN(C)C4)cc2)c2ccccc21 (stereo not shown) [H1354, 1-(1-acetylindolin-3-yl)-3-(4-(((2-methylisoindolin-5-yl)methyl)sulfonyl)phenyl)urea] |  |  |  |  | 8.61 µM | > 30 µM | 8.9 µM | 
CC(NC(=O)Nc1ccc(S(=O)(=O)Cc2ccc3c(c2)CNC3)cc1Br)c1ccccc1 (stereo not shown) [H1485, 1-(2-bromo-4-((isoindolin-5-ylmethyl)sulfonyl)phenyl)-3-(1-phenylethyl)urea] | 0.0102 µM | > 30 µM |  | 0.0191 µM |  |  |  | 
C[C@H](NC(=O)Nc1ccc(S(=O)(=O)Nc2ccc3c(c2)CCN(C)C3)cc1)c1cccc(Cl)c1Cl [H1352, (S)-4-(3-(1-(2,3-dichlorophenyl)ethyl)ureido)-N-(2-methyl-1,2,3,4-tetrahydroisoquinolin-6-yl)benzenesulfonamide] |  |  |  |  | 0.0077 µM | > 30 µM | 0.0046 µM | 
